According to patent US20020026053A1, “Novel 3-(substituted) -2- indolinones compounds and use thereof as inhibitors of protein kinase activity” (priority 1997, published 2002):

Biological target: T1, Met receptor (EGFR/Met chimeric cells, EMR) (Homo sapiens, UniProt P08581)
T1 construct: expressed in transfected cells; the other entry of the earlier key: EGFR (P00533, Epidermal growth factor receptor)
Test: Met Autophosphorylation Assay
Format: biochemical
Details: protocol P.130
Method in brief: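 Met phosphorylation was measured by capture ELISA. Lysates (90 μg/100 μl, HNTG plus 1 mM PMSF) from transiently transfected EGFR/Met chimera (EMR) cells were bound for 60 min at room temperature to wells holding rabbit anti-Met (C-28) on goat anti-rabbit coat. Phosphotyrosine was the read-out.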

T1 sequence (P08581 with tags, fused parts or gaps): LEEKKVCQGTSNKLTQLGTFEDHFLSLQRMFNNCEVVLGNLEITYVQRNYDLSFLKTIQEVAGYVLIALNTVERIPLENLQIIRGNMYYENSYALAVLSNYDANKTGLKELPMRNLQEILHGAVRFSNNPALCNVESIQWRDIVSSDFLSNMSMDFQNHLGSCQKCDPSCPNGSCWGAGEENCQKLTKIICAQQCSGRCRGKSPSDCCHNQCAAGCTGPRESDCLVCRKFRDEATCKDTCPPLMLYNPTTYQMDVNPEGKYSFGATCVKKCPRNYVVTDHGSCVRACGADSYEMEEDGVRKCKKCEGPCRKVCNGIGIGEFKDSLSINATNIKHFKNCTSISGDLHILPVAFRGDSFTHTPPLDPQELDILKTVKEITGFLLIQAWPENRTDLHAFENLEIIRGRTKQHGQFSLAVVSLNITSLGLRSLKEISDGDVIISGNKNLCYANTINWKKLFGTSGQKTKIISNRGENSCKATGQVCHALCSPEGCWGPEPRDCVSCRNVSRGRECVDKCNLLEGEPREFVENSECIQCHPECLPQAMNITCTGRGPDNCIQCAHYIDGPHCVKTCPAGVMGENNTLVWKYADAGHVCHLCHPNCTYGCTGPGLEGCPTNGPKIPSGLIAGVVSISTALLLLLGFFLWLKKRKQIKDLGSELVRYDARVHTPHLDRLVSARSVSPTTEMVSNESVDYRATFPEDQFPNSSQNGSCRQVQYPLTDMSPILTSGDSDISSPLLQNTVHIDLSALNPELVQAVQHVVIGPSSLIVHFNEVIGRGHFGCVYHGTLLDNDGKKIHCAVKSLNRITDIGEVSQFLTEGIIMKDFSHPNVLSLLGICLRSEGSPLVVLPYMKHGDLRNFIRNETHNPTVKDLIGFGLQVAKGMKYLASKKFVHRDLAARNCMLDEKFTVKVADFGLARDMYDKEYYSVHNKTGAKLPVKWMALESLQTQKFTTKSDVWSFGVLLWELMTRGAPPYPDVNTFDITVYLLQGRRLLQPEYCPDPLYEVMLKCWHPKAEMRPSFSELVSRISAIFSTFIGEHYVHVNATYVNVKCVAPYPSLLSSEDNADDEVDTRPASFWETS

Structure (SMILES)	Met Kinase % Inhibition (P.130) [%]
Cc1ccc(C)c(C=C2C(=O)Nc3ccc(CCCl)cc32)c1 [10737/G07]	41.8
O=C1Nc2ccc(CCCl)cc2C1=Cc1ccc2ccccc2c1 [10737/G08]	31.2
O=C1Nc2ccc(CCCl)cc2C1=Cc1ccc(Oc2ccccc2)cc1 [10737/G09]	37.9
CC(C)(C)c1ccc(Oc2cccc(C=C3C(=O)Nc4ccc(CCCl)cc43)c2)cc1 [10737/G10]	22.8
O=C1Nc2ccc(CCCl)cc2C1=Cc1cccc(Oc2cccc(C(F)(F)F)c2)c1 [10737/G11]	35.1
CCOc1ccc(C=C2C(=O)Nc3c(Br)cc(Br)c(C)c32)cc1 [10737/H02]	42.9
Cc1ccc(C=C2C(=O)Nc3c(Br)cc(Br)c(C)c32)c(C)c1 [10737/H03]	46.1
Cc1c(Br)cc(Br)c2c1C(=Cc1cc(F)ccc1F)C(=O)N2 [10737/H04]	63.0
Cc1c(Br)cc(Br)c2c1C(=Cc1cccc(F)c1F)C(=O)N2 [10737/H05]	76.5
COc1ccc(C=C2C(=O)Nc3c(Br)cc(Br)c(C)c32)cc1F [10737/H06]	28.7
